These results are taken from US5591828A, “Bispecific and oligospecific mono-and oligovalent receptors, the preparation and use thereof” (Behringwerke Aktiengesellschaft, priority 1989, dated 1997).

Where only a bound is given, the exact number is not on record here.

Common to all, as to experiment: Quantitative inhibition ELISA for MAbs by DTPA or EDTA complexes
Holding throughout (type): binding, mouse (Balb/c)

Test [1] addresses MAb 2050/535 (anti-DTPA/EDTA monoclonal antibody). The conditions noted are these: solid phase Y-benzyl-DTPA-HSA, preincubation with competitor at RT for 30'. How it is done:
(§1) Isothiocyanatobenzyl-DTPA (formula 2) was covalently coupled as hapten onto human serum albumin (HSA as carrier) with a degree of derivatization of 19 benzyl-DTPA molecules per HSA molecule by the method described in (N. W. Brechbiel et al., Inorganic Chemistry25, (1986) 2772-2781). 20 μg of this hapten-carrier complex, into which cold Y had been complexed, were injected s.c. on day 0 with Freund's adjuvant, on day 7 and 14 with incomplete Freund's adjuvant and on day 21 with PBS into Balb/c mice. On day 24, the spleens of the mice with the highest anti-DTPA antibody titers were fused with the SP2/0-Ag14 myeloma cell line (Shulman et al., Nature 276, (1978) 269). The resulting hybridomas were tested in a DTPA-specific ELISA for the production of high-affinity MAbs against DTPA and EDTA. The ELISA comprised a solid phase which was loaded with a solution containing HSA-benzyl-DTPA-Y. The supernatant containing the MAb to be tested was preincubated with free chelate or its metal ion complexes, and its binding to the specific solid phase was measured. An enzyme amplification system which is coupled to an anti-mouse immunoglobulin antibody was used for this purpose. The details of these methods are described in Annex 1a and 1b.
(§2) Quantitative inhibition ELISA for MAbs by DTPA or EDTA complexes
(§3) 1) 50 μl of Y-benzyl-DTPA-HSA 19 conjugate with a concentration of 1 μg of conjugate per ml of PBS, pH 7.2, are pipetted into each well and incubated at room temperature (RT) overnight.
(§4) 5) Preincubation of the diluted hybridoma supernatant with the competitor is carried out during the blocking (see Annex 1b).
(§5) 6) 50 μl of the appropriately prediluted and preincubated hybridoma supernatants to be tested are applied to each well and incubated at RT for 30 min.
(§6) 15) The extinctions are measured at 492 nm in a […]® […]. 50 μl of NADP with 50 μl of solution and 1200 μl of 0.1N H2 SO4 are employed as blank.
(§7) Preincubation of the hybridoma supernatant with the competitor
(§8) On the basis of the ELISA concentration determination, the hybridoma supernatants are diluted to 1.25 μg/ml in PBS without Ca^++ and Mg^++.
(§9) The hybridoma supernatant is incubated with 100,000-fold, 50,000-fold, 10,000-fold, 5,000-fold, 1,000-fold and 100-fold excess of competitor at RT for 30'. 50 μl of this are pipetted into the ELISA (see Annex 1a, no. 6).
(§10) The complexing constant of DTPA or EDTA to the metal ions depicted in Table I is extremely high so that complete saturation has to be expected on equimolar mixing of DTPA or EDTA with these metal ions. For this reason, the corresponding metal ions were incubated in a 3-fold molar excess with the DTPA or EDTA. As an example, 170 μl of a 10 mM cadmium sulfate solution in double-distilled water (see Annex 1d) were incubated with 30 μl of a 0.028 molar DTPA stock solution in double-distilled water at RT for 5'. Mixing 10 μl of this competitor solution with the hybridoma supernatant leads to a 100,000-fold excess of competitor over the MAb contained in the hybridoma supernatant. Lower competitor to MAb ratios were achieved by diluting the competitor solution in the particular salt ion solution appropriately for the desired molar excess (see Annex 1b).
(§11) Quantitative assay of inhibition of MAb by DTPA and EDTA
(§12) Molar excess of competitor which leads to 50% inhibition of the binding to the solid-phase antigen.

In test [2] the target is MAb 2050/531 (anti-DTPA/EDTA monoclonal antibody). The conditions noted are these: solid phase Y-benzyl-DTPA-HSA, preincubation with competitor at RT for 30'. How it is done:
as §1, §2, §3, §4, §5, §6, §7, §8, §9, §10, §11, §12

For test [3], the target named is MAb 2050/534 (anti-DTPA/EDTA monoclonal antibody). The conditions noted are these: solid phase Y-benzyl-DTPA-HSA, preincubation with competitor at RT for 30'. How it is done: as §1, §2, §3, §4, §5, §6, §7, §8, §9, §10, §11, §12
Test [4] concerns the target MAb BW 2050/174 (anti-DTPA/EDTA monoclonal antibody). The conditions noted are these: MAb 2050/174; solid phase Y-benzyl-DTPA-HSA; preincubation with competitor at RT for 30'. How it is done:
as §1, §2, §3, §4, §5, §6, §7, §8, §9, §10, §11, §12

The target of test [5] is MAb 2050/532 (anti-DTPA/EDTA monoclonal antibody). The conditions noted are these: solid phase Y-benzyl-DTPA-HSA, preincubation with competitor at RT for 30'. How it is done:
as §1, §2, §3, §4, §5, §6, §7, §8, §9, §10, §11, §12

With `O=C([O-])CN(CCN(CC(=O)O)CC(=O)O)CC(=O)[O-].[Zn+2]` [EDTA-Zn], the “Molar excess of competitor which leads to 50% inhibition of the binding to the solid-phase antigen” value in test [1] is given as 10^2 molar excess; in test [2], 10^3 molar excess; in test [3], 10^3 molar excess; in test [4], 10^3 molar excess; in test [5], 10^3 molar excess.

As for `O=C([O-])CN(CCN(CCN(CC(=O)O)CC(=O)O)CC(=O)O)CC(=O)[O-].[Zn+2]` [DTPA-Zn], the “Molar excess of competitor which leads to 50% inhibition of the binding to the solid-phase antigen” value in test [1] is listed as 10^3 molar excess; in test [2], 5 × 10^3 molar excess; in test [3] it was 5 × 10^3 molar excess; in test [4], 5 × 10^3 molar excess; in test [5], 5 × 10^3 molar excess.

Turning to `O=C([O-])CN(CCN(CC(=O)[O-])CC(=O)[O-])CC(=O)[O-].[Cu+2]` [EDTA-Cu], the “Molar excess of competitor which leads to 50% inhibition of the binding to the solid-phase antigen” value is recorded as 10^2 molar excess in test [1]; 10^2 molar excess in test [2]; 10^3 molar excess in test [3]; 10^3 molar excess in test [4]; 5 × 10^3 molar excess in test [5].

In the case of `O=C(O)CN(CCN(CC(=O)O)CC(=O)O)CCN(CC(=O)O)CC(=O)O` [DTPA, diethylenetriaminepentaacetate], the “Molar excess of competitor which leads to 50% inhibition of the binding to the solid-phase antigen” value in test [1], in test [2], in test [3], in test [4] and in test [5] was 10^3 molar excess in each case.

In the case of `NCCN` [1,2-Diaminoethane, 1,2-diaminoethane], the “Molar excess of competitor which leads to 50% inhibition of the binding to the solid-phase antigen” value in test [1], in test [2], in test [3], in test [4] and in test [5] was > 10^5 molar excess each time.

With `O=C([O-])CN(CCN(CC(=O)[O-])CC(=O)[O-])CCN(CC(=O)[O-])CC(=O)[O-].[Y+3]` [DTPA-Y], the “Molar excess of competitor which leads to 50% inhibition of the binding to the solid-phase antigen” value is on record as 10^4 molar excess in test [1]; 5 × 10^4 molar excess in test [2]; 5 × 10^4 molar excess in test [3]; 10^4 molar excess in test [4]; 5 × 10^4 molar excess in test [5].

For `O=C(O)/C=C(\CC(=O)O)C(=O)O` [Trans-aconitic acid, transaconitic acid], the “Molar excess of competitor which leads to 50% inhibition of the binding to the solid-phase antigen” value in test [1], in test [2], in test [3], in test [4] and in test [5] was > 10^5 molar excess throughout.
